ChEMBL document CHEMBL1201862, “PubChem BioAssay data set” (2004)
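Cells were grown in 96-well plates and exposed to each compound for 48 hours at five concentrations; endpoints were interpolated linearly between bracketing concentrations, or set to the highest concentration if not reached. Here, GI50 denotes the concentration required for 50% inhibition of growth.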 Activity calls are given as the source filed them. Cut-off read from the data, not from the text of the source: active = GI50 up to about 1.1 µM and inactive = higher.

Tests used:
Assay in all cases: NCI-60 cell line screen, 48 h
UACC-62 = system: UACC-62
SW-620 = system: SW-620
RXF 393 = system: RXF 393
COLO 205 = system: COLO 205
NCI-H460 = system: NCI-H460
U-251 = system: U-251
RPMI-8226 = system: RPMI-8226
SK-OV-3 = system: SK-OV-3
UACC-257 = system: UACC-257
TK-10 = system: TK-10
DU-145 = system: DU-145
786-0 = system: 786-0
Hs-578T = system: Hs-578T
HOP-62 = system: HOP-62
LOX IMVI = system: LOX IMVI
OVCAR-3 = system: OVCAR-3
BT-549 = system: BT-549
A498 = system: A498
OVCAR-8 = system: OVCAR-8
HCC 2998 = system: HCC 2998

Measured: GI50

COCCOC(=O)c1c(C)[n+]([O-])c2cc(Cl)c(Cl)cc2[n+]1[O-]
inactive: UACC-62 14.8 µM | SW-620 20 µM | RXF 393 30.4 µM | COLO 205 12.5 µM | NCI-H460 7.85 µM | U-251 9.82 µM | RPMI-8226 4.69 µM | SK-OV-3 17.9 µM | UACC-257 20.2 µM | TK-10 23.2 µM | DU-145 11.5 µM | 786-0 22.6 µM | Hs-578T 32.7 µM | HOP-62 11 µM | LOX IMVI 13.5 µM | OVCAR-3 13.4 µM | BT-549 19.1 µM | A498 20.3 µM | OVCAR-8 7.06 µM

CC1C(OS(=O)(=O)c2ccc3nc(S)sc3c2)CC2C3(C)CCC2(C(C)C(=O)O)C(O)C13 (centres undefined)
inactive: UACC-62 21.9 µM | RXF 393 21.7 µM | COLO 205 20.7 µM | HCC 2998 35.6 µM | NCI-H460 46.9 µM | U-251 16.2 µM | RPMI-8226 11.5 µM | SK-OV-3 40.7 µM | UACC-257 75.7 µM | TK-10 44.5 µM | DU-145 15.7 µM | 786-0 20.2 µM | Hs-578T 48.1 µM | HOP-62 29.1 µM | OVCAR-3 14.5 µM | BT-549 24.9 µM | A498 54.7 µM | OVCAR-8 20.1 µM

CC1=CC2(O)OC3(CC2=C(C)C)C(C)CCC13 (centres undefined)
inactive: UACC-62 > 100 µM | SW-620 > 100 µM | RXF 393 > 100 µM | COLO 205 > 100 µM | U-251 > 100 µM | RPMI-8226 > 100 µM | SK-OV-3 > 100 µM | UACC-257 > 100 µM | TK-10 > 100 µM | DU-145 > 100 µM | 786-0 > 100 µM | Hs-578T > 100 µM | HOP-62 > 100 µM | LOX IMVI > 100 µM | OVCAR-3 > 100 µM | BT-549 > 100 µM | A498 > 100 µM | OVCAR-8 > 100 µM

COc1ccc2[nH]c(CCNC(=O)c3cc([N+](=O)[O-])cc([N+](=O)[O-])c3)cc2c1
inactive: UACC-62 36.1 µM | SW-620 > 100 µM | RXF 393 18.1 µM | COLO 205 > 100 µM | NCI-H460 > 100 µM | U-251 14.7 µM | RPMI-8226 > 100 µM | SK-OV-3 41 µM | UACC-257 > 100 µM | TK-10 46.8 µM | DU-145 > 100 µM | 786-0 21.2 µM | Hs-578T 58.9 µM | HOP-62 12.3 µM | LOX IMVI 64.1 µM | OVCAR-3 > 100 µM | BT-549 > 100 µM | A498 > 100 µM | OVCAR-8 44.5 µM
